Drawing on ChEMBL document CHEMBL4028835, “Identification of low micromolar dual inhibitors for aldose reductase (ALR2) and poly (ADP-ribose) polymerase (PARP-1) using structure based design approach” (Bioorg Med Chem Lett, 2017), this text covers IC50 for 13 compounds.

As a reminder, the IC50 is the midpoint of a concentration-inhibition curve.

Assay [1] is described as follows: Inhibition of goat lenses ALR2 using glyceraldehyde as substrate measured for 5 mins by UV-spectrophotometric method. On the set-up: species or system Capra hircus.
In assay [2] the target is Poly [ADP-ribose] polymerase 1 (Homo sapiens, UniProt P09874). As to the kind of experiment: Inhibition of PARP1 (unknown origin) using activated DNA as substrate measured after 60 mins in presence of biotinylated NAD by colorimetric assay.
Chain of Poly [ADP-ribose] polymerase 1 (P09874 whole entry): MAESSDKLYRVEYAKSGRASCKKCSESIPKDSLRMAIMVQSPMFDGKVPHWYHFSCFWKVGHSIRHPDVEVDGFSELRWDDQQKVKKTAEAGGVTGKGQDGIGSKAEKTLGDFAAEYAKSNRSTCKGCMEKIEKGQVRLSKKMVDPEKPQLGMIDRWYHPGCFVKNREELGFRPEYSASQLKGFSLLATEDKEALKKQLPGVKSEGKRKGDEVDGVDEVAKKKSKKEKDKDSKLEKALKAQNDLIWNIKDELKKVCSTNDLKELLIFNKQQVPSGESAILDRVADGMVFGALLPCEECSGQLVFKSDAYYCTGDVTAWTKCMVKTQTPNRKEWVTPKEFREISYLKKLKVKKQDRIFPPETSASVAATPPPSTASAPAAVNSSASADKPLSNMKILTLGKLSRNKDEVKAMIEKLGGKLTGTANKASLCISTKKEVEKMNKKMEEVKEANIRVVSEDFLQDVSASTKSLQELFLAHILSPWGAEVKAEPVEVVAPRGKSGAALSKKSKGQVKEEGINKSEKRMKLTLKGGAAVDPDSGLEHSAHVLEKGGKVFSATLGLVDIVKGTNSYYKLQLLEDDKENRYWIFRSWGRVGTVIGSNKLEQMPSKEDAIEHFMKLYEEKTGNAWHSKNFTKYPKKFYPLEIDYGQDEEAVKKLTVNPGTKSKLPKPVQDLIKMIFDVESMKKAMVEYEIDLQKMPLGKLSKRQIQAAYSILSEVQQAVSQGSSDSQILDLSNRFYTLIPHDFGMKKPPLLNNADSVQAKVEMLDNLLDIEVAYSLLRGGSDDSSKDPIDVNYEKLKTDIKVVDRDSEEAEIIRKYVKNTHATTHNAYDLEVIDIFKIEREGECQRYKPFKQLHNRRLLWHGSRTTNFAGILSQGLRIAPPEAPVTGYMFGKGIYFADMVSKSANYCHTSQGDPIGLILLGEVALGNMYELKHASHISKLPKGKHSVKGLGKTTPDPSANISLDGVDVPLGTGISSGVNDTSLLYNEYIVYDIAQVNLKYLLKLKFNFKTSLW

Consider `O=C1NC(=O)/C(=C/c2c[nH]c3ccccc23)S1`, for which the IC50 in assay [1] is 16.4 µM; in assay [2] it was over 100 µM.
Consider `CCc1ccc(Cn2cc(C=C3SC(=O)NC3=O)c3ccccc32)cc1`, for which the IC50 in assay [1] came to 13.9 µM.
Same read-out and setting: the result for `O=C1NC(=O)/C(=C/c2cn(Cc3ccc(Cl)cc3Cl)c3ccccc23)S1` reads 24.4 µM; that for `Cc1ccc(Cn2cc(C=C3SC(=O)NC3=O)c3ccccc32)cc1`, 11.5 µM.
In assay [1], `O=C1NC(=O)/C(=C/c2cn(Cc3cccc(C(F)(F)F)c3)c3ccccc23)S1` showed an IC50 of 22.9 µM.
`CC(C)(C)c1ccc(Cn2cc(/C=C3\SC(=O)NC3=O)c3ccccc32)cc1`: in assay [1], it took 48.5 µM to reach half-maximal inhibition (IC50).
For the compound `O=C1NC(=O)/C(=C/c2cn(Cc3ccccc3)c3ccccc23)S1`, the values for the IC50 in assay [1] and in assay [2] were 6.57 µM and over 100 µM, respectively.
Taken in the same sequence, the figures for `O=C1NC(=O)/C(=C/c2cn(Cc3ccc(Cl)cc3)c3ccccc23)S1` were 15.4 µM and over 100 µM.
`O=C1NC(=O)/C(=C/c2cn(Cc3ccc(F)cc3)c3ccccc23)S1` gave a half-maximal inhibitory concentration (IC50) in assay [1] of 1.7 µM.
On to `CC(C)c1ccc(Cn2cc(C=C3SC(=O)NC3=O)c3ccccc32)cc1`, for which the IC50 in assay [1] stood at 40 µM; in assay [2] it was 0.74 µM.
`O=C1NC(=O)/C(=C/c2cn(Cc3cccc(Cl)c3)c3ccccc23)S1` registered a half-inhibitory concentration (IC50) in assay [1] of 23 µM.
Same read-out and setting: the same measure for `O=C1NC(=O)/C(=C/c2cn(Cc3ccccc3Cl)c3ccccc23)S1`: 4.72 µM; for `CC(/C=C1\SC(=S)N(CC(=O)O)C1=O)=C\c1ccccc1`: 0.09 µM.
